From PMC10095864, “Targeting HIV-1 Reverse Transcriptase Using a Fragment-Based Approach” (Molecules, 2023)
Read-outs that look alike come from different tables or passages of the source.

Assays:
[1] = biological target: T1, recombinant WT HIV-1 RT (Human immunodeficiency virus type 1 group M subtype B, UniProt P03367); assay: biochemical; conditions: for IC50: RT Inhibition—IC50 ± SEM, WT, WT RT DDDP activity, PicoGreen or 33P radiolabeled assay, value not marked as PicoGreen, n ≥ 2; for Ligand efficiency (LE): binding to WT RT, LE = −1.4(logIC50)/N
T1 construct: The p66/p51 HIV-1 RT heterodimer engineered with a N-terminal histidine tag; His tag (histidine tag) (N); made in house; host or cells: Escherichia coli strain M15 (vector pRT6H-PR)
Procedure: (§1) The inhibitory activity of all compounds was evaluated in vitro in assays that measure the DNA-dependent DNA polymerase (DDDP) activity of HIV-1 RT. Compounds were tested against recombinant WT and drug-resistant HIV-1 RT mutants (K103N, Y181C or K103N/Y181C). […] The IC50 value of nevirapine was determined in parallel to control for the performance of the assay. […] These RT mutations either reduce the rate of entry of NNRTIs to the binding pocket (K103N) or remove aromatic interactions that favor binding (Y181C). Initially, compound IC50 values were determined in an assay that quantifies DDDP activity mediated by HIV-1 RT using a radiolabeled ^33PdTTP substrate and more recently using a nonradioactive PicoGreen-based spectrophotometric assay.
(§2) Recombinant HIV-1 RT: The p66/p51 HIV-1 RT heterodimer engineered with a N-terminal histidine tag was expressed from the pRT6H-PR vector (provided by Nicolas Sluis-Cremer) which is based on pRT6H-PROT [37], except that the RT coding region is derived from the infectious molecular clone xxLAI [38]. This xxLAI clone contains the HIV-1LAI backbone and is engineered with silent mutations introducing Xma I and Xba I sites in the RT coding region at nucleotide positions 40–45 and 1470 to 1475, respectively. pRT6H-PR expressing the NNRTI drug-resistant mutations K103N, Y181C and K103N/Y181C were generated by subcloning Xma I/Xba I fragments in xxLAI harboring the desired NNRTI mutations (Giacobbi NS and Sluis-Cremer 2017 AAC) into the corresponding restriction sites in the RT coding region of p6HRT-PR. RT was expressed in Escherichia coli strain M15 and purified using Ni-NTA chromatography as previously described. RT concentrations were determined spectrophotometrically at 280 nm using an extinction coefficient (e280) of 260, 450 M^−1 cm^−1.
(§3) Nevirapine was included in assays as a positive control for inhibiting RT polymerase activity. The DDDP assay was performed by first adding 25 ng of HIV-1 RT to test compound in 96-well plates followed by initiating RT polymerase activity by adding 200 ng of activated calf thymus (ACT) DNA (Sigma Aldrich), 0.2 µCi ^33P-α-dTTP (Perkin Elmer), 50 mM Tris-HCl pH 7.8 50 mM KCl, […], 50 µM dNTP mix (Bioline), 0.1 mg/mL bovine serum albumin (New England Biolabs), 0.01% IGEPAL (Sigma) and 1 mM dithiothreitol. Reactions contained 2.5% dimethyl sulfoxide (DMSO). Following incubation at 37 °C for 10 min, samples from duplicate wells were applied to Whatman DE81 ion-exchange paper (GE Healthcare); dried membranes were washed in 2X saline-sodium citrate (SSC) buffer; and incorporated counts were quantified using an FLP-2000 phosphorimager (Fujifilm) or Typhoon Trio Phosphorimager (GE Healthcare) as published. Dose–response curves were generated using PRISM GraphPad version 8 by plotting the log transformed drug concentrations against percentage inhibition of DDDP activity compared to the no drug control using non-linear regression analysis.
(§4) Non-radioactive DDDP Assay: DDDP assays were also performed using a PicoGreen based spectrophotometric assay to detect double-stranded DNA synthesized by recombinant HIV-1 RT [15]. Assays were performed as described for the […] DDDP assay except that instead of ACT, the reaction contained 40 nM of a template/primer comprising a 200 nt DNA template (5′-[…] […]-3′) annealed to a 18 nucleotide DNA primer (5′-[…]-3′), 50 mM Tris-HCl pH 7.8, 50 mM KCl, 10 mM MgCl2 and 50 µM dNTP mix.

[2] = biological target: T2, His-tagged HIV-1 RT WT (Human immunodeficiency virus type 1 group M subtype B, UniProt P03367); assay: Surface plasmon resonance, WT RT; format: binding
T2 construct: The p66/p51 HIV-1 RT heterodimer engineered with a N-terminal histidine tag; His tag (histidine tag) (N); made in house; host or cells: Escherichia coli strain M15 (vector pRT6H-PR)
Procedure: (§5) Compound binding to recombinant HIV-1 RT was measured by surface plasmon resonance (SPR). SPR is an optical biosensor detection method that involves passing an analyte (often a fragment) in a buffer solution over a gold surface chip with an immobilized protein (RT enzyme) and detecting the change in plasmon resonance angle which is dependent on the refractive index of the medium near the surface. As compounds bind to the target protein, the refractive index changes proportionally to the extent of binding. This can then be used to measure the association and dissociation kinetics of binding as well as the compound’s affinity for binding.
(§6) SPR assays were performed on a Biacore S200 (GE Healthcare). His-tagged RT (WT, K103N, Y181C or K103N/Y181C) was immobilized on the surface of a Biacore compatible NIHC 1500M (Xantec) chip according to manufacturer’s instructions. Following 3 injections 300 s each of 0.5 M EDTA, the chip surface was activated with a 120 s injection of 5 mM NiCl2 followed by a 2100 s injection of 130 nM RT. The final immobilization level of RT was typically 14,000–27,000 RU. SPR experiments were carried out at 25 °C using a flow rate of 50 µL/min in running buffer. The running buffer was 1.053 × (HBS pH 7.4 + 50 µM EDTA + 0.005% Tween-20). Compounds were provided as 200 mM stocks and diluted in running buffer to obtain the concentrations required for dose-response studies (0, 6.25, 12.5, 25, 50, 100 and 200 µM). Raw sensorgram data were analyzed using Biacore S200 Evaluation Software. Dose-response determinations were evaluated using a 1:1 binding model. KD values were determined by Biacore S200 Evaluation Software Version 1.0. assuming 1:1 binding. For compounds approaching saturation, Rmax was floated. For compounds with insufficient curvature, Rmax was fixed based on a control. Errors were determined as the standard error in the dose-response fit, as calculated by Biacore S200 Evaluation Software.

[3] = biological target: T3, His-tagged HIV-1 RT K103N (Human immunodeficiency virus type 1 group M subtype B, UniProt P03367, K702N); assay: Surface plasmon resonance, K103N RT; conditions: ± standard error of dose–response fit, n = 1; NB = no binding observed; read-out: SPR—KD, K103N
T3 construct: The p66/p51 HIV-1 RT heterodimer engineered with a N-terminal histidine tag; His tag (histidine tag) (N); made in house; host or cells: Escherichia coli strain M15 (vector pRT6H-PR)
Procedure: as §5, §6

[4] = biological target: T4, His-tagged HIV-1 RT Y181C (Human immunodeficiency virus type 1 group M subtype B, UniProt P03367, Y780C); assay: Surface plasmon resonance, Y181C RT; conditions: ± standard error of dose–response fit, n = 1; NB = no binding observed; read-out: SPR—KD, Y181C
T4 construct: The p66/p51 HIV-1 RT heterodimer engineered with a N-terminal histidine tag; His tag (histidine tag) (N); made in house; host or cells: Escherichia coli strain M15 (vector pRT6H-PR)
Procedure: as §5
(§7) SPR assays were performed on a Biacore S200 (GE Healthcare). His-tagged RT (WT, K103N, Y181C or K103N/Y181C) was immobilized on the surface of a Biacore compatible NIHC 1500M (Xantec) chip according to manufacturer’s instructions. Following 3 injections 300 s each of 0.5 M EDTA, the chip surface was activated with a 120 s injection of 5 mM NiCl2 followed by a 2100 s injection of 130 nM RT. […] Raw sensorgram data were analyzed using Biacore S200 Evaluation Software. Dose-response determinations were evaluated using a 1:1 binding model. KD values were determined by Biacore S200 Evaluation Software Version 1.0. assuming 1:1 binding. […] Errors were determined as the standard error in the dose-response fit, as calculated by Biacore S200 Evaluation Software.

[5] = biological target: T5, HIV-1 RT K103N/Y181C mutant (Human immunodeficiency virus type 1 group M subtype B, UniProt P03367, K702N/Y780C); assay: DDDP activity assay, K103N/Y181C RT mutant; format: biochemical
T5 construct: The p66/p51 HIV-1 RT heterodimer engineered with a N-terminal histidine tag; His tag (histidine tag) (N); made in house; host or cells: Escherichia coli strain M15 (vector pRT6H-PR)
Procedure: as §1, §2, §3, §4

[6] = tested on: HIV-1 RT K103N/Y181C mutant; assay: DDDP activity assay, K103N/Y181C RT mutant; format: biochemical; conditions: nonsignificant
Procedure: as §1, §2, §3, §4

[7] = biological target: T6, His-tagged HIV-1 RT K103N/Y181C (Human immunodeficiency virus type 1 group M subtype B, UniProt P03367, K702N/Y780C); assay: Surface plasmon resonance, K103N/Y181C RT; format: binding
T6 construct: The p66/p51 HIV-1 RT heterodimer engineered with a N-terminal histidine tag; His tag (histidine tag) (N); made in house; host or cells: Escherichia coli strain M15 (vector pRT6H-PR)
Procedure: as §5, §7

[8] = tested on: His-tagged HIV-1 RT K103N/Y181C; assay: Surface plasmon resonance, K103N/Y181C RT; format: binding; conditions: SPR
Procedure: as §5, §7

[9] = biological target: T7, HIV-1 RT K103N mutant (Human immunodeficiency virus type 1 group M subtype B, UniProt P03367, K702N); assay: DDDP activity assay, K103N RT mutant; format: biochemical; conditions: PicoGreen or 33P radiolabeled assay, n ≥ 2, read-out: RT Inhibition—IC50 ± SEM, K103N
T7 construct: The p66/p51 HIV-1 RT heterodimer engineered with a N-terminal histidine tag; His tag (histidine tag) (N); made in house; host or cells: Escherichia coli strain M15 (vector pRT6H-PR)
Procedure: as §1
Recombinant HIV-1 RT: The p66/p51 HIV-1 RT heterodimer engineered with a N-terminal histidine tag was expressed from the pRT6H-PR vector (provided by Nicolas Sluis-Cremer) which is based on pRT6H-PROT [37], except that the RT coding region is derived from the infectious molecular clone xxLAI [38]. […] RT concentrations were determined spectrophotometrically at 280 nm using an extinction coefficient (e280) of 260, 450 M^−1 cm^−1. […]

[10] = biological target: T8, HIV-1 RT Y181C mutant (Human immunodeficiency virus type 1 group M subtype B, UniProt P03367, Y780C); assay: DDDP activity assay, Y181C RT mutant; format: biochemical; conditions: PicoGreen or 33P radiolabeled assay, n ≥ 2, read-out: RT Inhibition—IC50 ± SEM, Y181C
T8 construct: The p66/p51 HIV-1 RT heterodimer engineered with a N-terminal histidine tag; His tag (histidine tag) (N); made in house; host or cells: Escherichia coli strain M15 (vector pRT6H-PR)
Procedure: as §1
Recombinant HIV-1 RT: The p66/p51 HIV-1 RT heterodimer engineered with a N-terminal histidine tag was expressed from the pRT6H-PR vector (provided by Nicolas Sluis-Cremer) which is based on pRT6H-PROT [37], except that the RT coding region is derived from the infectious molecular clone xxLAI [38]. […] RT concentrations were determined spectrophotometrically at 280 nm using an extinction coefficient (e280) of 260, 450 M^−1 cm^−1.
Nevirapine was included in assays as a positive control for inhibiting RT polymerase activity. […] Following incubation at 37 °C for 10 min, samples from duplicate wells were applied to Whatman DE81 ion-exchange paper (GE Healthcare); dried membranes were washed in 2X saline-sodium citrate (SSC) buffer; and incorporated counts were quantified using an FLP-2000 phosphorimager (Fujifilm) or Typhoon Trio Phosphorimager (GE Healthcare) as published. […]

[11] = tested on: NNRTI-binding pocket (NNIBP) of HIV-1 RT; set-up: method as in PMID 24002095; conditions: cited from earlier work
[12] = tested on: HIV-1 RT (WT RT construct RT35A); conditions: assay detects inhibition of both DNA polymerase and RNase H activity; read-out: IC50 (Bauman et al.); cited from earlier work

With `CCOC(=O)c1cnn2ccc(N)cc12` [compound 8, Ethyl 5-Aminopyrazolo[1,5-a]pyridine-3-carboxylate] the IC50 [1] was > 1000 µM, the Kd [2] was 522 ± 27 µM and the Kd [3] was 621 ± 36 µM. The Kd [4] was 610 ± 32 µM.
For `CCOC(=O)c1cnn2cccc(C#CC3CC3)c12` [compound 27, Ethyl 4-(Cyclopropylethynyl)pyrazolo[1,5-a]pyridine-3-carboxylate], the “fold improvement on parent compound B-1” value ([1]; IC50 vs B-1 IC50 >1000 μM in the radioactive RT assay) was > 20 fold, the IC50 [1] was 11 ± 1 µM and the “Ligand efficiency (LE)” value [1] was 0.37 kcal/mol/HA. The IC50 [5] was 34 ± 8 µM, the “fold decrease in susceptibility, K103N/Y181C mutant compared to WT RT” value [6] was 3.0 fold and the Kd [2] was 79 ± 7 µM. The Kd [3] was 187 ± 15 µM, the Kd [7] was 187 ± 15 µM and the “fold decrease in binding, K103N/Y181C double mutant vs WT” value [8] was 2–3 fold.
With `CCOC(=O)c1cnn2cccc(Br)c12` [compound 6, Ethyl 4-Bromopyrazolo[1,5-a]pyridine-3-carboxylate] the IC50 [1] was 159 ± 29 µM, the “Ligand efficiency (LE)” value [1] was 0.35 kcal/mol/HA and the IC50 [9] was 846 ± 42 µM. The IC50 [10] was 850 ± 187 µM, the Kd [2] was 598 ± 15 µM and the Kd [3] was 1400 ± 45 µM. The Kd [4] was 1190 ± 47 µM.
In the case of `Cc1cc(/C=C/C#N)cc(C)c1Nc1ccnc(Nc2ccc(C#N)cc2)n1` [Rilpivirine, rilpivirine], the “affinity for the NNIBP” value [11] is given as 0.73 nM.
For `CCOC(=O)c1cnn2ccccc12` [compound B-1, ethyl pyrazolo[1,5-a]pyridine-3-carboxylate, reference compound], the IC50 [5] is listed as 208 µM, the Kd ([2]; read-out: SPR—KD, WT, ± standard error of dose–response fit, n = 1, NB = no binding observed) is listed as > 200 µM and the IC50 [12] is listed as 350 µM.
